The test system of data set [1] is human osteosarcoma cells (U2OS). Kind of data set: CCK8 cytotoxicity assay, U2OS. The data set is classed as cell-based. To be noted: CCK8, 48 h, carcinoma cell line. The source says: (§1) The growth inhibitory effects of the isolated farnesyl phenolic compounds (1–8) against carcinoma cell lines [human osteosarcoma cells (U2OS), human colorectal carcinoma cells (SW620), human ES-2 ovarian carcinoma cells (ES-2)] and normal tissue cell lines [human hepatic cells (Lo2), African green monkey kidney vero cells (Vero)] were further investigated using CCK8 assay method (Table 3).
(§2) Carcinoma cell lines [human osteosarcoma cells (U2OS), human colorectal carcinoma cells (SW620), human ES-2 ovarian carcinoma cells (ES-2)] and normal tissue cell lines [human hepatic cells (Lo2), African green monkey kidney Vero cells (Vero)] The U2OS, SW620, ES-2, Lo2 and Vero were obtained from ATCC (Manassas, VA, USA). The SW620 and Vero cells were cultured in Roswell Park Memorial Institute medium (RPMI), with 10% fetal bovine serum (Hyclone) and 1% penicillin-streptomycin (Sigma). Lo2, U2OS and ES-2 cells were grown in Dulbecco's modified eagle medium (DMEM), with 10% fetal bovine serum (Hyclone) and 1% penicillin-streptomycin (Sigma). All of these cells were cultured at 37°C in a humidified atmosphere with 5% CO2. For CCK8 assay cytotoxicity evaluation of compounds, all cells were separately plated at a density of 1 × 10^4 cells/well in a 96 well plate. Cells were cultivated at 37°C in 5% CO2 atmosphere for 24 h, then medium in the wells was replaced with fresh medium containing compounds which were diluted in 8 dilution steps covering the range from 200 μM to 1.5625 μM. And DMSO was used as negative control. After 48 h incubation, 10 μL of CCK8 solution was added to each well. After 30 min, the optical density (OD) of each well was measured at wavelength of 450 nm on spectrophotometer. Data were corrected for background (no-cell control) and expressed as a percentage of the value for untreated cells. The IC50 values of the isolated compounds were derived from the mean OD values of the triplicate tests versus the drug concentration curves.
For orientation: Tetrazolium assays rely on reduction of a dye to a coloured formazan, in cell work by metabolically active cells.

The subject of data set [2] is human ES-2 ovarian carcinoma cells (ES-2). Kind of data set: CCK8 cytotoxicity assay, ES-2. The class given is cell-based. To be noted: CCK8, 48 h, carcinoma cell line.
From the text: as §1, §2

For data set [3], the system named is human hepatic cells (Lo2). Kind of data set: CCK8 cytotoxicity assay, Lo2. The data set is classed as cell-based. The note with it: CCK8, 48 h, normal tissue cell line.
From the text: as §1, §2

Data set [4] concerns human colorectal carcinoma cells (SW620). The data set can be described thus: CCK8 cytotoxicity assay, SW620. The data set is classed as cell-based. The note with it: CCK8, 48 h, carcinoma cell line.
From the text: as §1, §2

Data set [5] relates to African green monkey kidney vero cells (Vero). Kind of data set: CCK8 cytotoxicity assay, Vero. The data set is classed as cell-based. The note with it: CCK8, 48 h, normal tissue cell line.
From the text: as §1, §2

The nature of data set [6]: CCK8 cytotoxicity assay, Lo2. The class given is cell-based, human. To be noted: human, Lo2 human hepatic cells (normal tissue cell line), CCK8, 48 h.
From the text: as §1, §2

The target of data set [7] is T1, MTH1 (Homo sapiens, UniProt P36639). The data set can be described thus: Microscale thermophoresis (MST) binding assay. For orientation: MST reads how a fluorescent partner responds to local heating, with and without ligand.
Procedure: Microscale thermophoresis method (MST) was employed to assay the binding affinity between the compounds and MTH1. […] The dissociation constant Kd values were automatically calculated by using the NT Analysis software (Nano Temper Technologies, München, Germany).
Recombinant human MTH1 was labeled with the Monolith NT™ Protein Labeling Kit RED (Cat#L001) according to the supplied labeling protocol [32]. Labelled MTH1 was kept constant at 100 nM, while all samples tested were diluted in a 20 mM HEPES (pH 7.5) and 0.05 (v/v) % Tween-20. Compounds were diluted in 12 dilution steps covering the range from 500 μM to 200 nM. After 10 min incubation at room temperature about 37°C, samples were loaded into Monolith™ standard-treated capillaries and the thermophoresis was measured at 25°C after 30 min incubation on a Monolith NT.115 instrument (NanoTemper Technologies, München, Germany). Laser power was set to 20% using 30 seconds on-time. The LED power was set to 100%. The dissociation constant Kd values were fitted by using the NTAnalysis software (NanoTemper Technologies, München, Germany). The Kd value of the binding was obtained in two ways. The first way was calculated by thermophoresis curve when there was no fluorescent change during the initial fluorescence scanning. The second way was calculated from the initial fluorescence scanning curve when compounds bound in the sites which directly interfered the fluorescence.
Data set [8] is described as follows: CCK8 cytotoxicity assay, Vero. The note with it: African green monkey, Vero kidney cells (normal tissue cell line), CCK8, 48 h. The data set is classed as cell-based, African green monkey.
From the text: as §1, §2

Data set [9] deals with T1, MTH1. Kind of data set: Enzyme inhibition assay (8-oxo-dGTP hydrolysis, HPLC). The data set is classed as biochemical. The arrangement: hexa-histidine (His6) (N, cleaved yes); made in house; host or cells: E. coli BL21 Star. To be noted: 8-oxo-dGTP 25 μM, purified MTH1. The protocol: Microscale thermophoresis method (MST) was employed to assay the binding affinity between the compounds and MTH1. This technology can quantify protein-protein interactions or protein-small molecule interactions with high sensitivity through detecting fluorescent changes of molecules during thermophoresis.
To identify the efficacy of the eight compounds, an enzyme inhibition assay was carried out. […] Then the reaction was stop by the addition of 20 μL ice-cold Na2EDTA (50 mM). The reaction mixture was centrifugated at 15000 rpm at 4°C for 10 min. 20 μL of supernatant was injected on an HPLC column (Ultimate AQ-C18 RP-18e, 250 mm × 4.6 mm × 5 μm), and eluted isolate with 100 mM Na2HPO4-NaOH (pH 5.5)/MeOH 95:5 with flow rate 1 mL/min at column room of 30°C. […] Measurements were done in triplet, and IC50 values were calculated to compare the efficiency of various compounds.

Setting [10] is: Homo sapiens, Ovarian carcinoma cell.

A value given as a limit tells only on which side of the number the result lay.

In the case of `C[C@H](Oc1cc(-c2cnn(C3CCNCC3)c2)cnc1N)c1c(Cl)ccc(F)c1Cl` [(S)-crizotinib, reference compound], the IC50 is 32.3 ± 1.28 µM in data set [1]; 9.09 ± 1.06 µM in data set [2]; 26 ± 1.2 µM in data set [3]; 17.5 ± 1.11 µM in [4]; 16.7 ± 1.15 µM in [5].

As to `CO[C@@]1(c2cc(O)cc(O)c2)C=C(CCCC(CO)CC/C=C(\C)COC(=O)/C=C/c2ccc(O)cc2)C(=O)O1` (stereo partly drawn) [Compound 2, (5S)-3-{9-[(E)-coumaroyl]-4-hydroxymethyl-8-methyl-7-nonene}-5-(3,5-dihydroxyphenyl)-5-methoxy-2(5H)-furanone], the IC50 in data set [1] (Homo sapiens, U2OS) is 54.2 ± 1.1 µM; in [2] (setting [10]), 76.8 ± 1.09 µM; in data set [4] (Homo sapiens, SW-620), 104 ± 1.07 µM; at MTH1 [9] it was 11 ± 1.03 µM. Further, the IC50 at 48 h is more than 300 µM in data set [6] and 260.4 ± 1.16 µM in data set [8]. The affinity at MTH1 [7], expressed as Kd, was 2.38 ± 0.663 µM.

With `C/C(=C\CCC(CO)CCCC1=C[C@H](c2cc(O)ccc2O)OC1=O)COC(=O)/C=C/c1ccc(O)cc1` (stereo partly drawn) [Compound 3, (5R)-3-{9-[(E)-coumaroyl]-4-hydroxymethyl-8-methyl-7-nonene}-5-(2,5-dihydroxyphenyl)-2(5H)-furanone], the IC50 in [1] (Homo sapiens, U2OS) amounted to 73.2 ± 1.24 µM; in [2] (setting [10]), 90.6 ± 1.12 µM; in data set [4] (Homo sapiens, SW-620) it was 70.9 ± 1.08 µM; against MTH1 [9] it was 22.9 ± 1.04 µM. The IC50 at 48 h in data set [6] and in data set [8] was more than 300 µM throughout. The same compound registered a Kd at MTH1 [7] of 246 ± 38.7 µM.

As for `C/C(=C\CCC(CO)CCCC1=C[C@@H](c2cc(O)ccc2O)OC1=O)COC(=O)/C=C/c1ccc(O)cc1` (stereo partly drawn) [Compound 4, (5S)-3-{9-[(E)-coumaroyl]-4-hydroxymethyl-8-methyl-7-nonene}-5-(2,5-dihydroxyphenyl)-2(5H)-furanone], the IC50 in [1] (Homo sapiens, U2OS) was 66.4 ± 1.11 µM; in [2] (setting [10]) it was 64.2 ± 1.28 µM; in [4] (Homo sapiens, SW-620) it was 56.5 ± 1.15 µM; at MTH1 [9], 22.9 ± 1.07 µM. Also, the IC50 at 48 h was 279.1 ± 2.17 µM in data set [6] and more than 300 µM in [8]. The compound also registered a Kd on MTH1 [7] of 4.63 ± 0.519 µM.

For `CO[C@]1(c2cc(O)ccc2O)C=C(CCCC(CO)CC/C=C(\C)COC(=O)/C=C/c2ccc(O)cc2)C(=O)O1` (stereo partly drawn) [Compound 5, (5R)-3-{9-[(E)-coumaroyl]-4-hydroxymethyl-8-methyl-7-nonene}-5-(2,5-dihydroxyphenyl)-5-methoxy-2(5H)-furanone], the IC50 is 64.4 ± 1.08 µM in data set [1] (Homo sapiens, U2OS); 80.1 ± 3.56 µM in data set [2] (setting [10]); 16.3 ± 1.03 µM at MTH1 [9]. The IC50 at 48 h in [6] and in data set [8] was more than 300 µM each time. Moreover, binding at MTH1 [7] was characterised by a dissociation constant (Kd) of 296 ± 13.3 µM.

With `CO[C@@]1(c2cc(O)ccc2O)C=C(CCCC(CO)CC/C=C(\C)COC(=O)/C=C/c2ccc(O)cc2)C(=O)O1` (some centres unmarked) [Compound 6], the IC50 in data set [1] (Homo sapiens, U2OS) was 57.8 ± 1.07 µM; in data set [2] (setting [10]), 37.3 ± 3.56 µM; in data set [4] (Homo sapiens, SW-620) it was 53.7 ± 1.06 µM; against MTH1 [9], 8.62 ± 1.03 µM. Moreover, the IC50 at 48 h in data set [6] and in data set [8] was more than 300 µM in each case. Besides, the affinity on MTH1 [7], expressed as Kd, was 113 ± 25.4 µM.

Regarding `CO[C@]1(c2cc(O)cc(O)c2)C=C(CC/C=C(\CO)CC/C=C(\C)COC(=O)/C=C/c2ccc(O)cc2)C(=O)O1` [Compound 7], the IC50 amounted to 96.3 ± 1.13 µM in data set [1] (Homo sapiens, U2OS); 74.5 ± 1.17 µM in data set [2] (setting [10]); 101 ± 1.07 µM in [4] (Homo sapiens, SW-620); 28.5 ± 1.05 µM against MTH1 [9]. In addition, the IC50 at 48 h in data set [6] and in [8] was more than 300 µM throughout. This compound displayed a Kd at MTH1 [7] of 103 ± 32.1 µM.

For the compound `CO[C@@]1(c2cc(O)cc(O)c2)C=C(CC/C=C(\CO)CC/C=C(\C)COC(=O)/C=C/c2ccc(O)cc2)C(=O)O1` [Compound 8], the concentration for half-maximal inhibition (IC50) in [1] (Homo sapiens, U2OS) amounted to 95.4 ± 1.05 µM; in data set [2] (setting [10]) it was 60.9 ± 1.34 µM; in data set [4] (Homo sapiens, SW-620), 55.2 ± 1.16 µM; against MTH1 [9] it was 26.6 ± 1.03 µM. For the same compound, the IC50 at 48 h in [6] and in data set [8] was more than 300 µM throughout. This compound also had a Kd on MTH1 [7] of 210 ± 42.7 µM.

For orientation: IC50 means the concentration needed to halve the response being measured. Broadly, the Kd is a measure of binding affinity in units of concentration.

(Values after article PMC5707067, “Farnesyl phenolic enantiomers as natural MTH1 inhibitors from Ganoderma sinense” (Oncotarget, 2017).)
